Data: patent publication US6565890B2, “Antiviral drugs containing heteropolyanions” (priority 2001, dated 2003)

Assays:
Format in all cases: cell-based
in vitro = conditions: for respective culture cells; read-out: toxicity CC50
[1] = tested on: HIV (human immunodeficiency virus); assay: Inhibition of HIV cytopathic effect, MTT colorimetric method; conditions: HIV produced with either MT-4 cells or Hela CD4 cells; in words, figures only in FIG. 2
Experimental: The antiviral effect against HIV (human immunodeficiency virus) and cytotoxicity of the PM-1001 and PM-1002 of this invention synthesized as described above were examined in comparison with those of K6[C0W12O40]. (called PM-1003), i.e., a heteropolyoxotungstate salt having perfect Keggin structure and conventional dextran sulfate (DS5000) and azidothymidine (AZT) respectively utilized because of their excellent anti-HIV effect. The inhibition of cell growth of HIV was measured according to the MTT colorimetric method.
The tissue culture cells were MT-4 and Hela CD4. The HIV was prepared from the supernatant solutions of the culture fluids of HIV-producing MT-4 and HIV cells, or Hela CD4 and HIV cells. […] In the MTT colorimetry, the absorbance is measured by means of a colorimeter using a wavelength of 540 nm, to obtain the vital cell number proportional to the absorbance. If all the cells are dead due to virus infection, the absorbance becomes almost zero.
(§1) With the concentration of each drug such as PM-1001 as a parameter, the cell growth rate was examined. […] That is, the drug concentration capable of improving the absorbance of […] up to 50% (to prevent cytocidal cell degeneration) is obtained and expressed in micromoles (μM). […] ND stands for “not determined”.

[2] = tested on: DFV, FluV-A, RSV, PfluV, CDV, HIV; assay: Spectrum of antiviral activity (FIG. 3), MTT colorimetric method; conditions: all viruses of FIG. 3; in words
MT-4 and Hela CD4 cells = assay: Cytotoxicity in the anti-HIV test, MTT colorimetric method; conditions: MT-4 cells or Hela CD4 cells; in words
Experimental: The tissue culture cells were MT-4 and Hela CD4. The HIV was prepared from the supernatant solutions of the culture fluids of HIV-producing MT-4 and HIV cells, or Hela CD4 and HIV cells. The media were 10% fetal calf serum, and for culturing, 0.2 ml of MT-4 cells or Hela CD4 cells and 0.2 ml of HIV cells were placed in each well of a 24-well culture tray. After virus adsorption (the virus infectivity titer was 100-CCID50 per about 10^5 cells), each drug such as PM-1001 diluted in a medium was added, to make a total amount of 1.0 ml, and the mixture was cultured at 37° C. for 4 to 6 days. As controls, cells not infected with HIV and cells untreated with any drug such as PM-1001 were used. […] In the MTT colorimetry, the absorbance is measured by means of a colorimeter using a wavelength of 540 nm, to obtain the vital cell number proportional to the absorbance. If all the cells are dead due to virus infection, the absorbance becomes almost zero.
as §1

Molecule	CC50 (in vitro)	potent efficacy against HIV [1]	antiviral effects (FIG. 3, EC50 comparison) [2]	adverse effects (cytotoxicity) (MT-4 and Hela CD4 cells)
NC(=O)c1ncn([C@@H]2O[C@H](CO)[C@@H](O)[C@H]2O)n1 [ribavirin]	> 100 µM			
K6H4[(SbW9O33)2V3O3].29.5H2O [PM-1001]		very high potent efficacies	remarkably excellent antiviral effects	low adverse effects
K6H6[(SbW9O33)2V3O3].29.5H2O [PM-1002]		very high potent efficacies	remarkably excellent antiviral effects	low adverse effects
